Data published in article PMC9841523 (Journal of Medicinal Chemistry, 2022).
“And” between values parts separate entries of the source, which are not always exact repeats. Equal values may be shown once. Read-outs that look alike come from different tables or passages of the source.

Assays:
AMPKa1, AMPKa2 = experiment: KiNativ kinase panel; assay type: cell-based, human; conditions: 1 μM, MCF-7 Cells
MARK3, MARK4 = experiment: KiNativ kinase panel; assay type: cell-based, human; conditions: 1 μM; MCF-7 Cells; Lys1; EVAIKIIDK
MST3, MST4, YSK1 = experiment: KiNativ kinase panel; assay type: cell-based, human; conditions: 1 μM, MCF-7 Cells, Activation Loop
MAP2K7 = target: T1, MAP2K7 (Homo sapiens, UniProt O14733); experiment: KiNativ kinase panel; assay type: cell-based; conditions: 1 μM; MCF-7 Cells; Lys2; DVKPSNILLDER
T1 construct: MCF7 cells were exposed to; endogenous in cells; host or cells: MCF7

PI3K-DELTA = target: T2, PI3K-DELTA (Homo sapiens, UniProt O00329); experiment: Nanosyn Lipid Kinase screen; assay type: biochemical
T2 construct: purchased Carna lot#09CBS-1198D
Experimental: (§1) complex formation) controls.
(§2) Nanosyn Lipid Kinase screen. Biochemical inhibition of lipid and related protein kinases was determined by Nanosyn (Santa Clara, CA). […]
(§3) was determined by detection of fluorescent substrates using a microfluidic electrophoresis mobility shift assay with a LabChip3000 instrument (Caliper/PerkinElmer). Bodipy labeled phosphatidylinositol 4,5 phosphate (FL-PIP2) (Echelon Biosciences, Salt Lake City, Utah) with 1,2-dioctanoyl-sn-glycero-3-phospho-L-serine (PS) (Avanti Polar Lipids (Alabaster, AL) was […]
(§4) of DNA-PK (Promega, Cat#V4106) on a peptide/dsDNA complex was assayed by detection of ADP formation using ADP-Glo (Promega). Kinase reactions were assembled in 384 well plates in a total volume of 20 µL as follows. For PI3K isoforms, the kinase protein was pre-diluted to 2x concentration in the assay buffer (50 mM HEPES, pH 7.5, 1 mM DTT, 5 mM MgCl 2, 0.01% […]
(§5) well plate (10 µL per well). Compounds were serially pre-diluted in DMSO and added to the protein samples by acoustic dispensing (200 nL, Labcyte Echo). Concentration of DMSO was equalized to 1% in all samples. All test compounds were tested at 12 concentrations, 3x dilution intervals. The control samples (0%-inhibition in the absence of inhibitor, DMSO only) and 100%-inhibition (in the absence of enzyme) were assembled in replicates of four and were used to calculate %-inhibition in the presence of compounds. After 30 min of pre-incubation with compounds, the reactions were initiated by addition of 10 µL of FL-PIP2/PS substrate (10 µM […]
(§6) (PI3Kα,β), 0.5 nM (PI3Kδ) and 10 nM (PI3Kγ). Final concentration of ATP was 100 µM.
(§7) Following incubation, the reactions were quenched by addition of 50 µL of termination buffer (100 mM HEPES, pH 7.5,

PI3K-GAMMA = target: T3, PI3K-GAMMA (Homo sapiens, UniProt P48736); experiment: Nanosyn Lipid Kinase screen; assay type: biochemical
T3 construct: purchased Thermo Fisher lot#1716438D
Experimental: as §1, §2, §3, §4, §5, §6, §7

PI3K-BETA = target: T4, PI3K-BETA (Homo sapiens, UniProt P42338); experiment: Nanosyn Lipid Kinase screen; assay type: biochemical
T4 construct: purchased Carna lot # 12CBS-0359H
Experimental: as §1, §2, §3, §4, §5, §6, §7

PI3K-ALPHA = target: T5, PI3K-ALPHA (Homo sapiens, UniProt P42336); experiment: Nanosyn Lipid Kinase screen; assay type: biochemical
T5 construct: purchased BPS lot #110809
Experimental: as §1, §2, §3, §4, §5, §6, §7

mTORC1 = target: T6, mTORC1 (Homo sapiens, UniProt P42345+P62942); experiment: Nanosyn Lipid Kinase screen; assay type: biochemical
T6 construct: purchased BPS lot # 150818-A
Experimental: as §1, §2, §3, §4, §5, §6, §7

[1] = Mouse pharmacokinetics, IP administration; assay type: in vivo; conditions: male Balb/c mice, 1 mg/kg IP, mean ± SD, n = 3
Experimental: Mouse Pharmacokinetic Studies. Male Balb/C mice were non-fasted on the day of dosing. PK […]
plasma were conducted using an AB Sciex Triple Quad 6500+ mass spectrometer coupled with a Waters UPLC system. Supernatants were collected by centrifugation after protein precipitation using MeCN containing internal standard (IS, D4-AEA). Supernatant was injected for LC- […]
μm) column. The LC mobile phase (A: 5 mM NH 4OAc in H 2O; B: MeCN/MeOH 50/50)

CHK1 = target: T7, CHK1 (Homo sapiens, UniProt O14757); experiment: KiNativ kinase panel; assay type: cell-based; conditions: 1 μM, MCF-7 Cells
T7 construct: host or cells: MCF7
T7 sequence (O14757 1-476): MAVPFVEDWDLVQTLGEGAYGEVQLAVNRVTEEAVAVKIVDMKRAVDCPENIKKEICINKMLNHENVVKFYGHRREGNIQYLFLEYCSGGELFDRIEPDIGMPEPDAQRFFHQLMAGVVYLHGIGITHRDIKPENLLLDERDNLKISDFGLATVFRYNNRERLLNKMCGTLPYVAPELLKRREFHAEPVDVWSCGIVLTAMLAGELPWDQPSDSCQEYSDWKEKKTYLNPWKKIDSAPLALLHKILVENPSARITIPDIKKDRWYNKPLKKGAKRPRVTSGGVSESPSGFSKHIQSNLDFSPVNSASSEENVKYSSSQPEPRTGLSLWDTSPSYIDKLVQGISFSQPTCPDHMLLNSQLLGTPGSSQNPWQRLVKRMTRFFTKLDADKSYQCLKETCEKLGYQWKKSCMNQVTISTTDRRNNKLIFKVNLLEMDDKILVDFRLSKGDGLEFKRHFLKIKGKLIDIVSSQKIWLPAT

AKT2, AKT3 = experiment: KiNativ kinase panel; assay type: cell-based, human; conditions: 1 μM, MCF-7 Cells, ATP Loop
p38a = target: T8, p38a (Homo sapiens, UniProt Q16539); experiment: KiNativ kinase panel; assay type: cell-based; conditions: 1 μM, MCF-7 Cells
T8 construct: purchased ActivX Biosciences (KiNativ)

LOK = target: T9, LOK (Homo sapiens, UniProt O94804); experiment: KiNativ kinase panel; assay type: cell-based; conditions: 1 μM; MCF-7 Cells; Lys2; DLKAGNVLMTLEGDIR
T9 construct: endogenous in cells; host or cells: MCF7

CSK = target: T10, CSK (Homo sapiens, UniProt P41240); experiment: KiNativ kinase panel; assay type: cell-based; conditions: 1 μM, MCF-7 Cells
T10 construct: MCF7 cells were exposed to; endogenous in cells; host or cells: MCF7

ABL, ARG = experiment: KiNativ kinase panel; assay type: cell-based, human; conditions: 1 μM, MCF-7 Cells
[2] = Activation Loop, VSDFGLTKEASSTQDTGKLPVK

T10 sequence (P41240 whole entry): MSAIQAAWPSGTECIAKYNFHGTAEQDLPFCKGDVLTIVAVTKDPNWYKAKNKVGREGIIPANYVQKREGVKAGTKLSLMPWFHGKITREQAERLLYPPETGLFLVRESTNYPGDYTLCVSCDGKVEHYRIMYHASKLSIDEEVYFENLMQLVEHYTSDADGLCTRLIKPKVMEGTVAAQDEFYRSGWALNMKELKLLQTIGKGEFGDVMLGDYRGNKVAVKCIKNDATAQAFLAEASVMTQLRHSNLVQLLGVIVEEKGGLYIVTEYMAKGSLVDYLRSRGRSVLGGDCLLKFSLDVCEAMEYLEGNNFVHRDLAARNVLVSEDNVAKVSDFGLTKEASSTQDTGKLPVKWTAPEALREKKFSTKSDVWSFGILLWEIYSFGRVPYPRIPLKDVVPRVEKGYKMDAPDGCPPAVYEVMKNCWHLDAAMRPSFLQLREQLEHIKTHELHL
T8 sequence (Q16539 whole entry): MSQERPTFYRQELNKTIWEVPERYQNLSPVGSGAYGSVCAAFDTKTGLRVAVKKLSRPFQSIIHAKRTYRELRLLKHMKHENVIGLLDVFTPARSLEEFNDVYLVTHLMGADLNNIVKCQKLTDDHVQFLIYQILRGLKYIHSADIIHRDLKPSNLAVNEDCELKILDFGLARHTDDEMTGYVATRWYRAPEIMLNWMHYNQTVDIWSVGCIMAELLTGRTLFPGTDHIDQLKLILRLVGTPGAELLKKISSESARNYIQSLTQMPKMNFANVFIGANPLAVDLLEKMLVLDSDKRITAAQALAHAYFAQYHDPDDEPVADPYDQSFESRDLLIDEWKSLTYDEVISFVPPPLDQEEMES
T3 sequence (P48736 whole entry, species assumed): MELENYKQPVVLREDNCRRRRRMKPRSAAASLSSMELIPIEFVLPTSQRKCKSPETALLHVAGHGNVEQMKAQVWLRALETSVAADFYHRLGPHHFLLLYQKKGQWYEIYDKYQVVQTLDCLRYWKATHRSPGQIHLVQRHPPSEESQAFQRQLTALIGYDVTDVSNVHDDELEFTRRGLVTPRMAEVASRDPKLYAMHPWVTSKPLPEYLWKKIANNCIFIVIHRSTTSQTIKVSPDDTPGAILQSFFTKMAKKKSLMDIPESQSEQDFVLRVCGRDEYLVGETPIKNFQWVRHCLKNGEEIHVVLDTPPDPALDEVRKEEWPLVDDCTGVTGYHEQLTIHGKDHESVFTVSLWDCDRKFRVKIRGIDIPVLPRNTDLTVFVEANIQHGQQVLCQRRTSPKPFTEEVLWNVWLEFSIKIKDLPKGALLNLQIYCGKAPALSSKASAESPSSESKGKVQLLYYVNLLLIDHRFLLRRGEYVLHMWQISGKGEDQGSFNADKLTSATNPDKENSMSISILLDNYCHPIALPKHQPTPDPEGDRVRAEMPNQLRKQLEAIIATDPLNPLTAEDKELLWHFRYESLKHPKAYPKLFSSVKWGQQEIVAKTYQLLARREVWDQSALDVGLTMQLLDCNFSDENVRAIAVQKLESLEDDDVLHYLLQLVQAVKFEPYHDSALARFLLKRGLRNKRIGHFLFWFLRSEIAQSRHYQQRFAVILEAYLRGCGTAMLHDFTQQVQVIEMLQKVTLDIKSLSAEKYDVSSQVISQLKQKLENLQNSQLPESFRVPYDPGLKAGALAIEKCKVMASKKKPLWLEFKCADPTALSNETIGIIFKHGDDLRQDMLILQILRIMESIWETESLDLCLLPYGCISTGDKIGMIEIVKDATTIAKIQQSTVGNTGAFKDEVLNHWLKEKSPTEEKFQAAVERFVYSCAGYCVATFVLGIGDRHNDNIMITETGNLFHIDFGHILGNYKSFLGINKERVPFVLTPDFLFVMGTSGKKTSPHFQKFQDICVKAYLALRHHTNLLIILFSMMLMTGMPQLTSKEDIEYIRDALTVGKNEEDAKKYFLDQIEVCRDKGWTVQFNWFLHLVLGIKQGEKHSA
T3 sequence (P62942 whole entry partner, species assumed): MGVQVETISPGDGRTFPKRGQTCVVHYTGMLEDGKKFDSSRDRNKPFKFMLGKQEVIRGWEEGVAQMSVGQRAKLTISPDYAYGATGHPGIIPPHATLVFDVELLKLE
T2 sequence (O00329 whole entry, species assumed): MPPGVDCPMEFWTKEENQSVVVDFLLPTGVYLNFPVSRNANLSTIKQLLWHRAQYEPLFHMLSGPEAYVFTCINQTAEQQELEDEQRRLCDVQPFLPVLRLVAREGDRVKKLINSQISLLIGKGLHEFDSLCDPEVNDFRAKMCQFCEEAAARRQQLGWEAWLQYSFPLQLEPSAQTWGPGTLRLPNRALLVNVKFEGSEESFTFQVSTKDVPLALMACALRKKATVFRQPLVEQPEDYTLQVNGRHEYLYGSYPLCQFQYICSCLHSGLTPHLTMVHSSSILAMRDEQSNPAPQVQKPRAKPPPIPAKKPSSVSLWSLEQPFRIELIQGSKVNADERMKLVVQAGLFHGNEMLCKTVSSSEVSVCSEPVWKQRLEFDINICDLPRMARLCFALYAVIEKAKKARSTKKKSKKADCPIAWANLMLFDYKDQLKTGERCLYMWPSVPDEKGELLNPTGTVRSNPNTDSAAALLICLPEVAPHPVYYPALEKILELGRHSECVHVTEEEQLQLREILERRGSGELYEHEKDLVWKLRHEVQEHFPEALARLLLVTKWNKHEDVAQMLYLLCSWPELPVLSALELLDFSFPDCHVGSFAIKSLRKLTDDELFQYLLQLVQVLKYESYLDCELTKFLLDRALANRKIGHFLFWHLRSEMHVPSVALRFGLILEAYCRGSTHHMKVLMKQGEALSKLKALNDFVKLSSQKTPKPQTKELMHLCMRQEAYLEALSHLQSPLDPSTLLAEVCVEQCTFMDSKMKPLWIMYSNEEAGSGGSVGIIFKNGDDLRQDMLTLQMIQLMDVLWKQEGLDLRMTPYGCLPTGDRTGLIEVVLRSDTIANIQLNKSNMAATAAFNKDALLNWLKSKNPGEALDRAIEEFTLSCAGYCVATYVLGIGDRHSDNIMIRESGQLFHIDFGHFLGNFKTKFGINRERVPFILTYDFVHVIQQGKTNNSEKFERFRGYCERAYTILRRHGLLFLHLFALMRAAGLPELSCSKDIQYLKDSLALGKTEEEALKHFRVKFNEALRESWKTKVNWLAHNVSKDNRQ
T2 sequence (P27986 whole entry partner, species assumed): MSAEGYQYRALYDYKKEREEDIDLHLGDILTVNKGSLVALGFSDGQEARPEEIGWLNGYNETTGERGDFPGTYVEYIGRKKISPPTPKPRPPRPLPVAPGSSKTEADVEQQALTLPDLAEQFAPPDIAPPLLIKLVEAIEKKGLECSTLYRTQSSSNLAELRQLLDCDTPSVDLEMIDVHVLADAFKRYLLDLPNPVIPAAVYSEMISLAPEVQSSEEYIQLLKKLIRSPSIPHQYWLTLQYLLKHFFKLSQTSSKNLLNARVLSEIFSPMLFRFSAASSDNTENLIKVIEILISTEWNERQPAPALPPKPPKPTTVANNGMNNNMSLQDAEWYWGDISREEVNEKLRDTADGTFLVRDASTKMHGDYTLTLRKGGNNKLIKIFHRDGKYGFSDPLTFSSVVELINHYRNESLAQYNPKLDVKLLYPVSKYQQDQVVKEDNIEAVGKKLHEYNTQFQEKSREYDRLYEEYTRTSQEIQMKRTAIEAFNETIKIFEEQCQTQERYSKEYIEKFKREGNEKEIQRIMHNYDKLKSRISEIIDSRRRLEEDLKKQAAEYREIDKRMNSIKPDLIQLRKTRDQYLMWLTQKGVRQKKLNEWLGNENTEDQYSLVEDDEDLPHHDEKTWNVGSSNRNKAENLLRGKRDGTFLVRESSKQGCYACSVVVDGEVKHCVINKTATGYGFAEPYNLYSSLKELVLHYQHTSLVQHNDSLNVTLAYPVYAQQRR
T2 sequence (P62942 whole entry partner, species assumed): as the sequence (P62942 whole entry partner, species assumed) above
T4 sequence (P42338 whole entry, species assumed): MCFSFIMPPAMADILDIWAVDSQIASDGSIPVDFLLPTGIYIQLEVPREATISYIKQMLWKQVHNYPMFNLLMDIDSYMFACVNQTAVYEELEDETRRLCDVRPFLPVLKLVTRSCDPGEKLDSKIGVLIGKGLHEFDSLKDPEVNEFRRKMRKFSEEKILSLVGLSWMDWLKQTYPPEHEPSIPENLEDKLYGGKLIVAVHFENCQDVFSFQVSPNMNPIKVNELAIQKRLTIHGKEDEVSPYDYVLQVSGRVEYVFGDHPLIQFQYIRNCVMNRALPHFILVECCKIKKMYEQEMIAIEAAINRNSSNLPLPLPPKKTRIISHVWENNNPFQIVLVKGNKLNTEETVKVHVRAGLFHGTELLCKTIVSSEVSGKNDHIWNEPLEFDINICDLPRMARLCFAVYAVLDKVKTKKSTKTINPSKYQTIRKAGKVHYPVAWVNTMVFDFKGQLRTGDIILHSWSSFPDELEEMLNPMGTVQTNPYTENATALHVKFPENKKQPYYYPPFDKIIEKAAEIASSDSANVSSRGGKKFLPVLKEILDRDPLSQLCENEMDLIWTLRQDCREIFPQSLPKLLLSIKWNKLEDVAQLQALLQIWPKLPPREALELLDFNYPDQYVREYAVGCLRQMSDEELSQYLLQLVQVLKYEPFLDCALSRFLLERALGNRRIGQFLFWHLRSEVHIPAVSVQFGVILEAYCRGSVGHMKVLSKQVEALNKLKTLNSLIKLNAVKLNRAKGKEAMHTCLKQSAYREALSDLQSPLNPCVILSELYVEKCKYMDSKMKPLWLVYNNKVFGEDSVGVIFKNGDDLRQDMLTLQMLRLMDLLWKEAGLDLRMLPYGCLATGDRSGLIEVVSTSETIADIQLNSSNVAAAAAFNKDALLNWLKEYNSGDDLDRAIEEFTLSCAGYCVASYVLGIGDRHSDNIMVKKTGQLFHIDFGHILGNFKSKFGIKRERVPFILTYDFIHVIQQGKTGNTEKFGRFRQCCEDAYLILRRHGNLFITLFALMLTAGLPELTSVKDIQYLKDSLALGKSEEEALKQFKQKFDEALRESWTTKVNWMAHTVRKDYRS
T4 sequence (P27986 whole entry partner, species assumed): as the sequence (P27986 whole entry partner, species assumed) above
T4 sequence (P62942 whole entry partner, species assumed): as the sequence (P62942 whole entry partner, species assumed) above

For `CO[C@H]1C[C@@H]2CC[C@@H](C)[C@@](O)(O2)C(=O)C(=O)N2CCCC[C@H]2C(=O)O[C@H]([C@H](C)C[C@@H]2CC[C@@H](OC(=O)NCCOCCOCCOCCOCCOCCOCCOCCOCCC(=O)N3CCc4cc(Cn5nc(-c6ccc7oc(N)nc7c6)c6c(N)ncnc65)ccc4C3)[C@H](OC)C2)C[C@@H](O)[C@H](C)/C=C(\C)[C@@H](O)[C@@H](OC)C(=O)[C@H](C)C[C@H](C)/C=C/C=C/C=C/1C` [compound 38], the “KiNativ Kinase Panel Data” value (AMPKa1, AMPKa2; Lys1, VAVKILNR) was 6.8, the “KiNativ Kinase Panel Data” value (AMPKa1, AMPKa2; Lys2, […]) was -6.5 and the “KiNativ Kinase Panel Data” value (MARK3, MARK4) was 7.2. For the same molecule, the “KiNativ Kinase Panel Data” value (MST3, MST4, YSK1; […]) was 12.4, the “KiNativ Kinase Panel Data” value (MAP2K7) was 20.9 and the IC50 (PI3K-DELTA) was 0.095 µM. The IC50 (PI3K-GAMMA) was > 1 µM, the IC50 (PI3K-BETA) was > 1 µM and the IC50 (PI3K-ALPHA) was 0.0412 µM. The IC50 (mTORC1) was 0.000774 µM, the AUC(0-t) ([1]; mouse, in vivo) was 25.9 ± 3 µM·h and the Cmax ([1]; mouse, in vivo) was 5670 ng/mL and 3.19 µM. The half-life ([1]; mouse, in vivo) was 4.8 ± 0.4 h, the Tmax ([1]; mouse, in vivo, read-out: Tmax) was 2 h and the “KiNativ Kinase Panel Data” value (CHK1; Lys2, […]) was -13.6. For the same molecule, the “KiNativ Kinase Panel Data” value (CHK1; Other, […]) was 25.4, the “KiNativ Kinase Panel Data” value (AKT2, AKT3; […]) was -13.5 and the “KiNativ Kinase Panel Data” value (p38a; Lys2, DLKPSNLAVNEDCELK) was -4.3. For the same molecule, the “KiNativ Kinase Panel Data” value (p38a; Other, QELNKTIWEVPER) was -5.2, the “KiNativ Kinase Panel Data” value (LOK) was -65.4 and the “KiNativ Kinase Panel Data” value (CSK; [2]) was 1.9. For the same molecule, the “KiNativ Kinase Panel Data” value (CSK; Lys1, VAVKCIK) was 13.6, the “KiNativ Kinase Panel Data” value (ABL, ARG; Activation Loop, […]) was -3.4 and the “KiNativ Kinase Panel Data” value (ABL, ARG; Lys1, […]) was -1.3.

With `CO[C@H]1C[C@@H]2CC[C@@H](C)[C@@](O)(O2)C(=O)C(=O)N2CCCC[C@H]2C(=O)O[C@H]([C@H](C)C[C@@H]2CC[C@@H](OC(=O)NCCOCCOCCOCCOCCOCCOCCOCCOCCC(=O)NCCS(=O)(=O)c3ccc(C(=O)N4CCOc5ccc(-c6ccc(N)nc6)cc5C4)c(C)c3F)[C@H](OC)C2)C[C@@H](O)[C@H](C)/C=C(\C)[C@@H](O)[C@@H](OC)C(=O)[C@H](C)C[C@H](C)/C=C/C=C/C=C/1C` [compound 40] the “KiNativ Kinase Panel Data” value (AMPKa1, AMPKa2; Lys1, VAVKILNR) was 2.1, the “KiNativ Kinase Panel Data” value (AMPKa1, AMPKa2; Lys2, DLKPENVLLDAHMNAK) was -1.3 and the “KiNativ Kinase Panel Data” value (MARK3, MARK4) was 13.2. For the same molecule, the “KiNativ Kinase Panel Data” value (MST3, MST4, YSK1; LADFGVAGQLTDTQIKR) was 20.4, the “KiNativ Kinase Panel Data” value (MAP2K7) was -14.8 and the IC50 (PI3K-DELTA; Nanosyn, with FKBP12, read-out: PI3K-DELTA IC50) was > 1 µM. For the same molecule, the IC50 (PI3K-GAMMA; Nanosyn, with FKBP12, read-out: PI3K-GAMMA IC50) was > 1 µM, the IC50 (PI3K-BETA; Nanosyn, with FKBP12) was > 1 µM and the IC50 (PI3K-ALPHA; Nanosyn, with FKBP12, read-out: PI3K-ALPHA IC50) was > 1 µM. It also gave an IC50 (mTORC1; read-out: mTORC1 IC50, Nanosyn, with FKBP12) of 0.000473 µM, a Tmax [1] of 2.3 ± 1.5 h and a t1/2 [1] of 3.8 ± 0.6 h. For the same molecule, the AUClast ([1]; 1 mg/kg) was 8.7 ± 1.2 µM·h, the “KiNativ Kinase Panel Data” value (CHK1; Lys2, DIKPENLLLDER) was -10.9 and the “KiNativ Kinase Panel Data” value (CHK1; Other, LSKGDGLEFK) was 19.6. The “KiNativ Kinase Panel Data” value (AKT2, AKT3; GTFGKVILVR) was -101.1, the “KiNativ Kinase Panel Data” value (p38a; Lys2, DLKPSNLAVNEDCELK) was -6.8 and the “KiNativ Kinase Panel Data” value (p38a; Other, QELNKTIWEVPER) was -1.6. The “KiNativ Kinase Panel Data” value (LOK) was -19.4, the “KiNativ Kinase Panel Data” value (CSK; [2]) was 5.5 and the “KiNativ Kinase Panel Data” value (CSK; Lys1, VAVKCIK) was 17.7. For the same molecule, the “KiNativ Kinase Panel Data” value (ABL, ARG; Activation Loop, LMTGDTYTAHAGAKFPIK) was 16.3 and the “KiNativ Kinase Panel Data” value (ABL, ARG; Lys1, YSLTVAVKTLKEDTMEVEEFLK) was -25.3.
